The source of these data is patent US8598355B2, “Amide compound” (Astellas Pharma Inc., priority 2008, dated 2013).

The structures appear in SMILES notation.

Assay [1] concerns the target T1, rat EP4 receptor (Rattus norvegicus, UniProt P43114). As to the kind of experiment: Evaluation test of rat EP4 receptor affinity ([3H]PGE2 binding, membrane fraction of HEK293 cells expressing rat EP4). On the set-up: expressed in transfected cells; host or cells: HEK293 cells, transient transfection with Lipofectamine 2000; membrane fraction. Conditions: [3H]PGE2 0.3 nM. The protocol:
Evaluation Test of Rat EP4 Receptor Affinity
Cell Culturing and Transfection
Using a 10 cm collagen-coated dish (Asahi Glass), HEK293 cells were cultured in D-MEM culture medium, the culture medium was removed at a confluence (90 to 100% density state) and washed with a phosphate buffer saline (PBS), and then the cells were detached with N,N,N′,N′-tetrakis(carboxymethyl)ethylenediamine (EDTA). The number of the cells were counted and seeded on a 15 cm collagen-coated dish to a confluence of 70%. On the next day, to an Opti-MEM culture medium at 1.2 mL/dish was added Lipofectamine 2000 (Invitrogen) at 60 μL/dish, followed by leaving to stand at room temperature for 5 minutes. A plasmid in which rat EP4 (Sequence Number 1) had been inserted into a TA cloning site of pcDNA3.1-V5-His-topo was added thereto at 15 μg/dish. After leaving to stand at room temperature for 30 minutes, the resultant was added to the dish and cultured for 20 to 24 hours. The cell culture was carried out in a CO2 incubator (37° C., 5% CO2).
Preparation of Membrane Fraction
The culture medium was removed by suction, 10 mL of cooled PBS was added thereto per 15 cm dish, and the cells were scraped using a cell scraper (Sumitomo Bakelite). They were washed with cooled PBS (1,200 rpm, 4° C., 5 min), and then suspended in 6 mL of cooled 20 mM Tris-HCl (pH 7.4; Nakalai Tesque Inc., including 5 mM EDTA (Nakalai Tesque Inc.) per dish and the resultant was homogenized using a Polytron and the homogenate was centrifuged (26,000 rpm, 20 min, 4° C.). The obtained precipitate was resuspended in cooled 20 mM Tris-HCl and homogenized again using a Polytron, and the homogenate was centrifuged (26,000 rpm, 20 min, 4° C.). The obtained precipitate was resuspended in 50 mM HEPES (pH 7.5; Dojindo Laboratories) at 1 mL per dish, homogenized using a Polytron, and freeze-stored at −80° C. as a membrane fraction. At this time, a part thereof was used for the measurement of the protein concentration. Measurement of the protein concentration was carried out in duplicate using a Bio-Rad Protein assay kit (Bio-Rad Laboratories) in accordance with the appended standard Protocol.
[^3H]PGE2 50 μL (final concentration 0.3 nM; Perkin Elmer), 100 μL (20 μg/well) of a membrane fraction prepared from the rat EP4 expression cell and 50 μL of a test compound were mixed in a 96-well microplate (Sumitomo Bakelite), incubated at room temperature for 1 hour, filtered by suction on a UniFilter-96 GF/B (Perkin Elmer) using a FilterMate Harvester (Perkin Elmer), and then washed three times with 300 μL/well of a cooled assay buffer. Dilution of [^3H]PGE2 and the membrane fraction was carried out using an assay buffer (50 mM HEPES, 10 mM MgCl2), and dilution of the test compound and the unlabeled PGE2 was carried out using DMSO and an assay buffer. Further, in the case of the addition of a human serum albumin (HSA), dilution was carried out using an assay buffer containing 4% HSA (final concentration 1%; Sigma). The UniFilter-96 GF/B was treated preliminarily by washing twice with 200 μL/well of a cooled assay buffer. The UniFilter-96 GF/B after filtration was dried in a dryer overnight, 50 μL/well of MicroScint20 (Perkin Elmer) was added thereto, and then the radioactivity was measured using a TopCount (Perkin Elmer). For measurement of the non-specific binding, an unlabeled PGE2 (final concentration 1 μM; Cayman) was added. All of the measurements were carried out in duplicate, and the specific binding amount was determined by subtracting the non-specific binding amount from the total binding amount. The Ki value was calculated according to the general methods.
In the connection, Ex represents the below-described Example Compound number.

For assay [2], the target named is T1, rat EP4 receptor. Description: In vivo rat EP4 receptor antagonistic activity (ONO-4819/LPS, plasma TNF-α). Conditions: SD rat, oral. The protocol: Evaluation Test of In Vivo Rat EP4 Receptor Antagonistic Activity
A solution of PEG 400:20% Tween 80:aqueous 1 M NaHCO3 solution=1:4:5 of a test compound was orally administered to a SD rat (male, 6-week old) under non-fasting conditions, and after 1 hour, ONO-4819 was administered subcutaneously to the back of the rat. After 30 minutes, Lipopolysaccharide (LPS, 0.01 mg/kg) was administered to the tail vein without anesthesia, and after 60 minutes, 0.5 mL of heparin blood was collected from the fundus under ether anesthesia. The blood sample was centrifuged (3000 rpm, 10 minutes) to separate the plasma, and then the TNF-α concentration in the rat plasma was measured by an ELISA kit (see Hepatology Research Journal, vol. 21, 252-260, 2001). A value obtained by subtracting the TNF-α concentration of the group treated with ONO-4819 from the TNF-α concentration of the group not treated with ONO-4819 was taken as 100%, and the inhibitory rates to the value were calculated for the test compounds.
In this connection, Ex represents the below-described Example compound number.

T1 sequence (P43114 whole entry): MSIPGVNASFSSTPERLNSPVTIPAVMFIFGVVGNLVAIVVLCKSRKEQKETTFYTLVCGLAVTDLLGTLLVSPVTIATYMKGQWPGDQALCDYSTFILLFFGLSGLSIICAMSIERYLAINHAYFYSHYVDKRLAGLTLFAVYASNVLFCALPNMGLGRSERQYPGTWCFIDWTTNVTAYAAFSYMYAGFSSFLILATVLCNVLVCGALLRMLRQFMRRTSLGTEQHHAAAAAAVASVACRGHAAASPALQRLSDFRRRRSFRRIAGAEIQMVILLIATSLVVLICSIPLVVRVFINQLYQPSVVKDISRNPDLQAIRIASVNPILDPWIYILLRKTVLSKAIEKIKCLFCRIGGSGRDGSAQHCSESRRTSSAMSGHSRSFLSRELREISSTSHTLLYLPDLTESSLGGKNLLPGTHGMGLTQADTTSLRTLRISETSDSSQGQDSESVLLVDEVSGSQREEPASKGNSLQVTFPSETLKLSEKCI

In turn, `O=C(NC[C@H]1CC[C@H](C(=O)O)CC1)c1cc(C(F)(F)F)cc2ccn(Cc3ccc4cccnc4c3)c12` [Example 218] yielded a Ki at rat EP4 receptor [1] of 2.9 nM.
Turning to `O=C(NC[C@H]1CC[C@H](C(=O)O)CC1)c1cc(C(F)(F)F)cc2ccn(Cc3ccc(-c4ccccc4)cn3)c12` [Example 214], the “Inhibitory rate (%)” value at rat EP4 receptor [2] (dose 0.01 mg/kg) was 62%. At rat EP4 receptor [1], this compound had a Ki of 2.2 nM.
Turning to `O=C(NC[C@H]1CC[C@H](C(=O)O)CC1)c1cc(Cl)cc2ccn(Cc3ccc(Cl)cc3)c12` [Example 52], on rat EP4 receptor [1], the affinity, expressed as Ki, was 1.8 nM.
On to `O=C(O)c1ccc(CNC(=O)c2cc(Cl)cc3ccn(Cc4cc5ccccc5cn4)c23)cc1` [Example 143], for which the “Inhibitory rate (%)” value on rat EP4 receptor [2] (dose 0.03 mg/kg) is reported as 70%. This compound had an inhibition constant (Ki) on rat EP4 receptor [1] of 1 nM.
Regarding `O=C(NC[C@H]1CC[C@H](C(=O)O)CC1)c1cccc2ccn(Cc3cc4ccccc4o3)c12` [Example 188], the “Inhibitory rate (%)” value on rat EP4 receptor [2] (dose 0.01 mg/kg) is recorded as 88%. The Ki on rat EP4 receptor [1] was 1.2 nM.
Consider `O=C(NC[C@H]1CC[C@H](C(=O)O)CC1)c1cc(C(F)(F)F)cc2ccn(Cc3cccc4cnccc34)c12` [Example 220], for which, on rat EP4 receptor [1], the inhibitory constant (Ki) amounted to 16 nM.
Turning to `O=C(NC[C@H]1CC[C@H](C(=O)O)CC1)c1cc(C(F)(F)F)cc2ccn(Cc3csc(-c4ccccc4)n3)c12` [Example 213], the “Inhibitory rate (%)” value at rat EP4 receptor [2] (dose 0.01 mg/kg) is 75%. Besides, affinity at rat EP4 receptor [1] was put at a Ki of 2 nM.
On to `O=C(NC[C@H]1CC[C@H](C(=O)O)CC1)c1cc(Cl)cc2ccn(CCOc3ccc(Cl)cc3)c12` [Example 210], for which the “Inhibitory rate (%)” value at rat EP4 receptor [2] (dose 0.03 mg/kg) came out at 67%. For the same compound, the Ki on rat EP4 receptor [1] amounted to 1.3 nM.
With `C[C@H](NC(=O)c1cccc2ccn(CCOC3CCCCC3)c12)c1ccc(C(=O)O)cc1` [Example 164], at rat EP4 receptor [1], the Ki is 6.3 nM.
Consider `CN(NC(=O)c1cccc2ccn(CCOc3ccc(Cl)cc3)c12)c1ccc(C(=O)O)cc1` [Example 23], for which the “Inhibitory rate (%)” value on rat EP4 receptor [2] (dose 0.01 mg/kg) stood at 51%. Moreover, the Ki on rat EP4 receptor [1] worked out at 0.35 nM.
Consider `O=C(NC[C@H]1CC[C@H](C(=O)O)CC1)c1cc(C(F)(F)F)cc2ccn(Cc3ccc(Cl)cc3)c12` [Example 69], for which the Ki on rat EP4 receptor [1] was 1.4 nM.
As to `CN(NC(=O)c1cccc2ccn(Cc3csc(-c4ccccc4)n3)c12)c1ccc(C(=O)O)cc1` [Example 207], the “Inhibitory rate (%)” value at rat EP4 receptor [2] (dose 0.03 mg/kg) turned out to be 83%. In addition, at rat EP4 receptor [1], the Ki is 1.1 nM.
For `O=C(NC[C@H]1CC[C@H](C(=O)O)CC1)c1cc(C(F)(F)F)cc2ccn(Cc3ccc4ccncc4c3)c12` [Example 223], at rat EP4 receptor [1], the Ki came out at 3.5 nM.
As to `C[C@H](NC(=O)c1cccc2ccn(Cc3ccc(-c4ccccc4)cn3)c12)c1ccc(C(=O)O)cc1` [Example 115], at rat EP4 receptor [2] (dose 0.03 mg/kg), the “Inhibitory rate (%)” value amounted to 60%. Further, affinity on rat EP4 receptor [1] was put at a Ki of 1 nM.
`O=C(NC[C@H]1CC[C@H](C(=O)O)CC1)c1cc(C(F)(F)F)cc2ccn(Cc3ccc4ncccc4c3)c12` [Example 222] returned a Ki on rat EP4 receptor [1] of 2.8 nM.
Consider `O=C(O)c1ccc(CNC(=O)c2cc(Cl)cc3ccn(CCOc4ccc(Cl)cc4)c23)cc1` [Example 211], for which the “Inhibitory rate (%)” value at rat EP4 receptor [2] (dose 0.01 mg/kg) is given as 43%. Moreover, the affinity at rat EP4 receptor [1] corresponds to a Ki of 1.7 nM.
Take `O=C(O)c1ccc(CNC(=O)c2cccc3ccn(Cc4cc5ccccc5o4)c23)cc1` [Example 187]: the “Inhibitory rate (%)” value on rat EP4 receptor [2] (dose 0.03 mg/kg) is recorded as 58%. Besides, at rat EP4 receptor [1], the affinity, expressed as Ki, was 0.75 nM.
On rat EP4 receptor [1], `C[C@H](NC(=O)c1cccc2ccn(Cc3ccc(-c4ccccc4)nc3)c12)c1ccc(C(=O)O)cc1` [Example 4, 4-{(1S)-1-[({1-[(6-phenylpyridin-3-yl)methyl]-1H-indol-7-yl}carbonyl)amino]ethyl}benzoic acid] yielded a Ki of 0.82 nM.
Consider `O=C(NC[C@H]1CC[C@H](C(=O)O)CC1)c1cccc2ccn(Cc3cc4ccccc4s3)c12` [Example 206], for which the “Inhibitory rate (%)” value on rat EP4 receptor [2] (dose 0.01 mg/kg) stood at 72%. At rat EP4 receptor [1], this compound came in with a Ki of 1.2 nM.
With `C[C@H](NC(=O)c1cccc2ccn(Cc3ccc(N4CCCCC4)nc3)c12)c1ccc(C(=O)O)cc1` [Example 132], affinity on rat EP4 receptor [1] was put at a Ki of 2.6 nM.
On the same count and under the same terms, the value for `O=C(NC[C@H]1CC[C@H](C(=O)O)CC1)c1cccc2ccn(Cc3ccc(Cl)cc3)c12` [Example 32] was 12 nM.
With `O=C(NC[C@H]1CC[C@H](C(=O)O)CC1)c1cc(F)cc2ccn(Cc3cc4ccccc4cn3)c12` [Example 225], the “Inhibitory rate (%)” value on rat EP4 receptor [2] (dose 0.003 mg/kg) was 77%. At rat EP4 receptor [1], the Ki was 2.1 nM.
`O=C(NC[C@H]1CC[C@@H](C(=O)O)CC1)c1cccc2ccn(Cc3ccc(Cl)cc3)c12` [Example 137] displayed a Ki at rat EP4 receptor [1] of 9.1 nM.
For `O=C(O)c1ccc(CNC(=O)c2cc(C(F)(F)F)cc3ccn(Cc4csc(-c5ccccc5)n4)c23)cc1` [Example 212], the “Inhibitory rate (%)” value on rat EP4 receptor [2] (dose 0.01 mg/kg) is listed as 52%. Affinity on rat EP4 receptor [1] was put at a Ki of 2.4 nM.
As to `O=C(NC[C@H]1CC[C@H](C(=O)O)CC1)c1cc(C(F)(F)F)cc2ccn(Cc3cccc(Cl)n3)c12` [Example 216], on rat EP4 receptor [1], the affinity, expressed as Ki, was 16 nM.
Same read-out and setting: the value for `C[C@H](NC(=O)c1cccc2ccn(Cc3ccc(Cl)cc3)c12)c1ccc(C(=O)NS(=O)(=O)CCCO)cc1` [Example 6, 1-(4-chlorobenzyl)-N-[(1S)-1-(4-{[(3-hydroxypropyl)sulfonyl]carbamoyl}phenyl)ethyl]-1H-indole-7-carboxamide] was 31 nM.
With `O=C(O)c1ccc(CNC(=O)c2cc(Cl)cc3ccn(Cc4csc(-c5ccccc5)n4)c23)cc1` [Example 208], the “Inhibitory rate (%)” value at rat EP4 receptor [2] (dose 0.01 mg/kg) stood at 35%. Moreover, the Ki on rat EP4 receptor [1] was determined as 1.8 nM.
For `O=C(NC[C@H]1CC[C@H](C(=O)O)CC1)c1cc(Cl)cc2ccn(Cc3csc(-c4ccccc4)n3)c12` [Example 209], the Ki at rat EP4 receptor [1] is 1.9 nM.
On the same count and under the same terms, next, `O=C(NC[C@H]1CC[C@H](C(=O)O)CC1)c1cc(C(F)(F)F)cc2ccn(Cc3cc4ccccc4o3)c12` [Example 228]: 2.1 nM.
Take `O=C(NC[C@H]1CC[C@H](C(=O)O)CC1)c1cc(C(F)(F)F)cc2ccn(Cc3cc4ccccc4cn3)c12` [Example 159]: the “Inhibitory rate (%)” value at rat EP4 receptor [2] (dose 0.03 mg/kg) turned out to be 68%. Further, the Ki at rat EP4 receptor [1] turned out to be 2.1 nM.
Regarding `O=C(NC[C@H]1CC[C@H](C(=O)O)CC1)c1cc(C(F)(F)F)cc2ccn(Cc3cnc4ccccc4c3)c12` [Example 217], the affinity on rat EP4 receptor [1] corresponds to a Ki of 3 nM.
Still for that read-out and setting: the value for `O=C(NC[C@H]1CC[C@H](C(=O)O)CC1)c1c(F)ccc2ccn(Cc3cc4ccccc4cn3)c12` [Example 226] was 2.8 nM.
For the compound `O=C(NC[C@H]1CC[C@H](C(=O)O)CC1)c1cc(Cl)cc2ccn(Cc3cc4ccccc4cn3)c12` [Example 146], the “Inhibitory rate (%)” value at rat EP4 receptor [2] (dose 0.01 mg/kg) was found to be 88%. The compound further registered a Ki on rat EP4 receptor [1] of 1.8 nM.
Compound `O=C(NC[C@H]1CC[C@H](C(=O)O)CC1)c1cc(C(F)(F)F)cc2ccn(Cc3cccc4cccnc34)c12` [Example 219] had a Ki at rat EP4 receptor [1] of 3.3 nM.
The same measure, in the same setting: next, `C[C@H](NC(=O)c1cccc2ccn(Cc3coc(-c4ccccc4)n3)c12)c1ccc(C(=O)O)cc1` [Example 140]: 0.61 nM.
